Measured values taken from BigSolDB 2.1.

O=C(O)c1ccc[nH]c1=O
solubility (mole fraction)
Details	in acetone	in acetonitrile	in ethanol	in ethyl acetate	in isopropanol	in methanol	in n-butanol	in n-butyl acetate	in sec-butanol	in water
293.15 K	0.00135	0.000837	0.000992	0.000248	0.000278	0.00097	0.000215	5.2e-05	0.000138	0.000796
303.15 K	0.00199	0.00116	0.00134	0.000365	0.000401	0.00146	0.00031	7.5e-05	0.000199	0.00111
308.15 K	0.00233	–	–	–	–	–	–	–	–	–
313.15 K	0.00277	0.00169	0.00177	0.000559	0.000565	0.0021	0.000437	0.000105	0.000283	0.00159
318.15 K	0.0033	0.0019	0.00218	0.000661	0.000595	0.00253	0.000515	0.000124	0.000331	0.00195
323.15 K	0.00374	0.00218	0.0025	0.000795	0.000772	0.00297	0.000603	0.000146	0.000384	0.00237
333.15 K	–	0.00282	0.00351	0.00124	0.00106	0.00378	0.000817	0.000197	0.000525	0.00326
